The record followed here is patent US12350241B1, “Method for inhibiting proliferation of cancer cells” (IMAM MOHAMMAD IBN SAUD ISLAMIC UNIVERSITY, priority 2024, dated 2025).

Test systems include HEP2 cancer cells; PC3 cancer stem cells; FaDu cancer stem cells; HELA cancer stem cells.
Common to all, as to test: growth inhibition of cancer cells (FIG. 3)
What all share (format): cell-based

Assay [1] has as its system A549 lung cancer stem cells.
In assay [2] the test system is HCT116 colon carcinoma stem cells.
Assay [3] deals with MDA-MB-468 cancer stem cells.

Regarding `CCCCOc1ccc(Oc2ccc(C=O)cc2)cc1` [YS2, 4-(4-butoxyphenoxy)benzaldehyde], the growth inhibition percentage entry was “about 70%” in the assay on HEP2 cancer cells (HEP2 cancer cells); “about 90%” in assay [1] (A549 lung cancer stem cells); “about 90%” in assay [2] (HCT116 colon carcinoma stem cells); “about 90%” with PC3 cancer stem cells; “about 90%” with FaDu cancer stem cells; “about 95%” in assay [3]. For the same molecule, the growth inhibition percentage entry in the assay on HELA cancer stem cells is “about 80%”. Besides, the “performance compared to doxorubicin (DOX)” value with HEP2 cancer cells (HEP cell line, versus commercially available doxorubicin) was “comparable to or outperformed DOX”; in assay [1] (A549 cell line, versus commercially available doxorubicin) it was “comparable to or outperformed DOX”; in assay [2] (HCT 116 cell line, versus commercially available doxorubicin), “comparable to or outperformed DOX”.
